Columns and labels:
[1] = system: Colon26 colorectal cancer cells; assay: Anti-tumor effect on advanced Colon26 (Experimental Example 2), drug from Day 10; format: in vivo, mouse
Experimental: (§1) Also, in the Examples, the “suppression rate” was calculated using the following formula.
(§2) Suppression rate (%)=(1−tumor weight in the administration group/tumor weight in the control group)×100
(§3) Six-week-old BALB/cAnNCrj female mice were used for this test. The following six groups were provided: Group 1 in which physiological saline (solvent) was administered; Group 2 in which sulphostin was administered at a dose of 50 mg/kg; Group 3 in which sulphostin was administered at a dose of 3.1 mg/kg; Group 4 in which PT-100 was administered at a dose of 50 mg/kg; Group 5 in which PT-100 was administered at a dose of 3.1 mg/kg; and Group 6 in which Furtulon was administered at a dose of 30 mg/kg. The number of animals was set to seven in Group 1 (control group) and to five in each of Groups 2 to 6 (drug administration groups).
On Day 0, 2×10^5 Colon26 colorectal cancer cells were transplanted into the groin of the mice. Administration of each drug was initiated from Day 10 when the transplanted cancer cells were thought to grow. Each of sulphostin and PT-100 was intraperitoneally administered to the mice at the above dose once in a day on Days 10 to 18 and 20 to 25. Furtulon was orally administered following a similar administration schedule. In use, sulphostin and PT-100 were each diluted with physiological saline to have an intended concentration; and Furtulon was suspended in 0.5% sodium carboxymethyl cellulose and then diluted with physiological saline to have an intended concentration. On Day 28, the tumor was taken out from each mouse and weighed, to thereby determine the effect of each drug. In addition, the presence or absence of side effects of each drug was confirmed by monitoring a change in body weight of the mouse and observing the degree of hair loss in the mouse in the course of the treatment.

[2] = system: Colon26 colorectal cancer cells; assay: Anti-tumor effect on Colon26 (Experimental Example 1), transplanted mice; format: in vivo; details: for suppression rate: tumor weight Day 28 vs control group
Experimental: as §1, §2
as §3, with “200” for “50”, “50” for “3.1”, “eight” for “seven”, “six” for “five”
On Day 0, 2×10^5 Colon26 colorectal cancer cells were transplanted into the groin of the mice. Each of sulphostin and PT-100 was intraperitoneally administered to the mice at the above dose once in a day on Days 1 to 6, 8 to 13, 15 to 20 and 22 to 27. Furtulon was orally administered following a similar administration schedule. In use, sulphostin and PT-100 were each diluted with physiological saline to have an intended concentration; and Furtulon was suspended in 0.5% sodium carboxymethyl cellulose and then diluted with physiological saline to have an intended concentration. On Day 28, the tumor was taken out from each mouse and weighed, to thereby determine the effect of each drug. In addition, the presence or absence of side effects of each drug was confirmed by monitoring a change in body weight of the mouse in the course of the treatment and observing the degree of hair loss in the mouse after administration.

[3] = system: B16-BL6 mouse melanoma cells; assay: Test on cell toxicity, MTT method, B16-BL6; format: cell-based; details: 48 h, two days incubation
Experimental: (§4) The inhibitory effect of sulphostin on the proliferation of tumor cells in vitro was investigated. The culture liquid used was a 10% FCS-containing RPMI1640 medium, and incubation was performed at 37° C. in 5% CO2-air. EL-4 mouse thymoma cells, Colon-26 mouse colon cancer cells and B16-BL6 mouse melanoma cells were incubated at 1×10^4 cells/well for two days, and then the number of cells was measured by the MTT method. Specifically, MTT (0.4% and 10 μL) was added to each cell culture, followed by incubating for four hours. Further, 20% sodium dodecyl sulphate (SDS) was added thereto in an amount of 100 μL, and each plate was measured for absorbance at 570 nm and 690 nm using a microplate reader. Sulphostin was added to the wells simultaneously with the initiation of the tumor cell incubation.

B16-BL6 melanoma cells = assay: Anti-tumor effect on B16-BL6 (Experimental Example 3), transplanted mice; format: in vivo, mouse; details: tumor weight Day 21 vs control group
Experimental: as §1, §2
Five-week-old C57BL/6NCrj female mice were used for this test. The following three groups were provided: Group 1 in which physiological saline (solvent) was administered; Group 2 in which sulphostin was administered at a dose of 200 mg/kg; and Group 3 in which sulphostin was administered at a dose of 50 mg/kg. The number of animals was set to seven in Group 1 (control group) and to five in each of Groups 2 and 3 (drug administration groups).
On Day 0, 2×10^5 B16-BL6 melanoma cells were transplanted into the groin of the mice. Twenty four hours after transplantation, sulphostin was intraperitoneally administered to the mice at the above respective doses once in a day on Days 1 to 5, 7 to 12, and 14 to 19. In use, sulphostin was diluted with physiological saline to have an intended concentration. On Day 21, the tumor was taken out from each mouse and weighed, to thereby determine the effect of sulphostin.

EL-4 mouse thymoma cells = assay: Test on cell toxicity, MTT method, EL-4; format: cell-based; details: 48 h, EL4 thymoma, two days incubation
Experimental: as §4

[4] = system: Colon-26 mouse colon cancer cells; assay: Test on cell toxicity, MTT method, Colon-26; format: cell-based; details: Colon 26, 48 h, Colon26 colon cancer, two days incubation
Experimental: as §4

[5] = Toxicity test on mouse (Experimental Example 4); format: in vivo; details: i.p. twice a day for 10 days; for Heart weight (Avg.) / Left kidney weight (Avg.) / Liver weight (Avg.) / Lung weight (Avg.) / Right kidney weight (Avg.) / Spleen weight (Avg.) / Thymus weight (Avg.): dissected Day 19; for change in body weight: normal mice
Experimental: Four-week-old female ICR mice (Crj: CD-1) were used for this test. The following six groups were provided: Group 1 in which physiological saline (solvent) was administered; Group 2 in which sulphostin was administered at a dose of 50 mg/kg; Group 3 in which sulphostin was administered at a dose of 25 mg/kg; Group 4 in which PT-100 was administered at a dose of 50 mg/kg; Group 5 in which PT-100 was administered at a dose of 25 mg/kg; Group 6 in which PT-100 was administered at a dose of 12.5 mg/kg; and Group 7 in which PT-100 was administered at a dose of 6.3 mg/kg. Note that each of the above doses is a dose for each administration. The number of animals was set to three in each of the groups. Each drug was intraperitoneally administered to each mouse twice in a day for 10 consecutive days, and the mouse was weighed at an appropriate time and monitored over time. On Day 19 after initiation of administration, each mouse was dissected under anesthesia and examined for remarks.

[6] = 3.1 mg/kg intraperitoneal from Day 10, tumor weight Day 28 vs control group
[7] = 50 mg/kg intraperitoneal from Day 10, tumor weight Day 28 vs control group
[8] = 50 mg/kg intraperitoneal once a day from Day 1
[9] = 50 mg/kg intraperitoneal, six mice per group
[10] = 200 mg/kg intraperitoneal once a day from Day 1
[11] = 200 mg/kg intraperitoneal, six mice per group

Compound: C[C@H]1O[C@@H](n2cc(F)c(=O)[nH]c2=O)[C@H](O)[C@@H]1O [Furtulon, Doxifluridine]
- suppression rate ([1]; 30 mg/kg oral from Day 10, tumor weight Day 28 vs control group): 47.0%
- tumor regression ([2]; 30 mg/kg oral): the tumor was not regressed
- suppression rate ([2]; 30 mg/kg oral once a day from Day 1): 56.9%

Compound: CC(C)[C@H](N)C(=O)N1CCC[C@H]1B(O)O [PT-100]
- suppression rate on tumor weight [1, 6]: 51.5%
- suppression rate on tumor weight [1, 7]: 70.8%
- hair loss by continuous administration ([2]; 50 mg/kg intraperitoneal): extremely observed throughout the body
- suppression rate [2, 8]: 66.7%
- tumor regression [2, 9]: the tumor was not regressed
- hair loss by continuous administration ([2]; 200 mg/kg intraperitoneal): extremely observed throughout the body
- loss of body weight by continuous administration ([2]; 200 mg/kg intraperitoneal): considerably observed
- suppression rate [2, 10]: 62.3%
- tumor regression [2, 11]: the tumor was not regressed

Compound: N[C@H]1CCCN([P@@](N)(=O)NS(=O)(=O)O)C1=O [Sulphostin, 3(S)-amino-1-((R)-amino(sulfoamino)phosphinyl)-2-piperidone]
- suppression rate on tumor weight [1, 6]: 66.2%
- suppression rate on tumor weight [1, 7]: 87.3%
- loss of body weight by continuous administration ([1]; intraperitoneal from Day 10, dose not specified (groups 50 and 3.1 mg/kg)): not observed
- IC50 [3]: > 100 µg/mL
- suppression rate (B16-BL6 melanoma cells; [8]): 53.3%
- suppression rate (B16-BL6 melanoma cells; [10]): 51.7%
- hair loss by continuous administration ([2]; 50 mg/kg intraperitoneal): hardly observed
- loss of body weight by continuous administration ([2]; 50 mg/kg intraperitoneal): not observed
- suppression rate [2, 8]: 87.8%
- tumor regression [2, 9]: two out of six mice
- hair loss by continuous administration ([2]; 200 mg/kg intraperitoneal): hardly observed
- loss of body weight by continuous administration ([2]; 200 mg/kg intraperitoneal): not observed
- suppression rate [2, 10]: 91.7%
- tumor regression [2, 11]: two out of six mice
- IC50 (EL-4 mouse thymoma cells): > 100 µg/mL
- IC50 [4]: > 100 µg/mL
- abnormalities during monitoring and in remarks after dissection ([5]; 25 mg/kg per administration): nor did they show any abnormalities
- Heart weight (Avg.) ([5]; 25 mg/kg per administration): 118.3 mg
- Left kidney weight (Avg.) ([5]; 25 mg/kg per administration): 204.7 mg
- Liver weight (Avg.) ([5]; 25 mg/kg per administration): 1769.3 mg
- Lung weight (Avg.) ([5]; 25 mg/kg per administration): 182 mg
- Right kidney weight (Avg.) ([5]; 25 mg/kg per administration): 210.3 mg
- Spleen weight (Avg.) ([5]; 25 mg/kg per administration): 127.7 mg
- Thymus weight (Avg.) ([5]; 25 mg/kg per administration): 63.7 mg
- change in body weight ([5]; 25 mg/kg per administration): did not decrease in body weight
- abnormalities during monitoring and in remarks after dissection ([5]; 50 mg/kg per administration): nor did they show any abnormalities
- Heart weight (Avg.) ([5]; 50 mg/kg per administration): 120 mg
- Left kidney weight (Avg.) ([5]; 50 mg/kg per administration): 202.3 mg
- Liver weight (Avg.) ([5]; 50 mg/kg per administration): 1803.7 mg
- Lung weight (Avg.) ([5]; 50 mg/kg per administration): 165.3 mg
- Right kidney weight (Avg.) ([5]; 50 mg/kg per administration): 206.7 mg
- Spleen weight (Avg.) ([5]; 50 mg/kg per administration): 141.7 mg
- Thymus weight (Avg.) ([5]; 50 mg/kg per administration): 76 mg
- change in body weight ([5]; 50 mg/kg per administration): did not decrease in body weight

From patent US20100179324A1, “ANTI-TUMOR AGENT COMPRISING SULPHOSTIN OR SULPHOSTIN-RELATED COMPOUND AS THE ACTIVE INGREDIENT” (Microbial Chemistry Research Foundation, priority 2007, published 2010)
